Assay results taken from patent publication US4450269A, “Mono-5-substituted-3-chloro-4H-1,2,6-thiadiazin-4-one antifungal agents” (FMC Corporation, priority 1980, dated 1984).
Where two headings read alike, the source gives them in different places.

What was measured:
[1] = test system: Helminthosporium oryzae; assay: Mycelial growth test; details: Bipolaris oryzae, 72 h
[2] = test system: Alternaria solani; assay: Spore germination test; assay type: cell-based; details: AS, 48 hours
Procedure: (§1) The test chemical was dissolved or suspended in acetone in an amount such that 0.8 ml of the resulting suspension or solution, mixed with 40 ml water agar produced a water agar solution containing 40, 10, 2.5 and 1 ppm of test chemical. The resulting agar solution, at 50° C., was then divided equally between two sterile petri dishes, each having four separated quadrants, and allowed to solidify. […] quadrants of each dish were flooded with 0.1 ml of a spore suspension in sterile water. Spores of two pathogens, Erysiphe polygoni and Uromyes phaseoli, from infected plant leaves, were brushed on the remaining two quadrants. The tests were then incubated 48 hours, at 24° C.
(§2) Readings were then taken and the percentage of germinated spores calculated. From this percentage, a spore germination rating was assigned as follows: […]

[3] = test system: Erysiphe polygoni; assay: Spore germination test; assay type: cell-based; details: EP, 48 hours
Procedure: as §1, §2

[4] = test system: Botrytis cinerea; assay: Spore germination test; assay type: cell-based; details: BC, 48 hours
Procedure: as §1, §2

[5] = test system: Uromyces phaseoli; assay: Spore germination test; assay type: cell-based; details: UP, 48 hours
Procedure: as §1, §2

[6] = test system: Pyricularia oryzae; assay type: cell-based; details: PO, 48 hours
[7] = test system: Sclerotinia fructicola; assay: Mycelial growth test; assay type: cell-based; details: Sclerotinia, 72 h, SF, read-out: Percent Fungus Growth Inhibition
Source text: | SF = Sclerotinia fructicola

[8] = test system: Phytophthora infestans; assay: whole plant or invertebrate; assay type: in vivo; details: Phytophthora infestans, in Solanum lycopersicum, foliar, read-out: Percent Disease Control, foliar, tomato late blight, 150 ppm, protective
[9] = test system: Cladosporium cucumerinum; assay: Mycelial growth test; assay type: cell-based; details: Cladosporium cucumerinum, CC, read-out: Percent Fungus Growth Inhibition
Source text: |CC = Cladosporium cucumerinum

[10] = test system: Uromyces phaseoli; assay: whole plant or invertebrate; details: foliar, read-out: Percent Disease Control, foliar, bean rust
[11] = test system: Uromyces phaseoli; assay: whole plant or invertebrate; details: foliar, 24 h, read-out: Percent Disease Control, curative, bean rust
[12] = test system: Pythium ultimum; assay: Mycelial growth test; assay type: cell-based; details: Globisporangium ultimum, 72 h, PU, read-out: Percent Fungus Growth Inhibition
[13] = test system: Erysiphe polygoni; assay: whole plant or invertebrate; details: foliar, 24 h, read-out: Percent Disease Control, curative, bean powdery mildew
[14] = test system: Cladosporium cucumerinum; assay: Spore germination test; assay type: cell-based; details: CC, 48 hours
Procedure: CC = Cladosporium cucumerinum
as §1, §2

[15] = test system: Rhizoctonia solani; assay: Mycelial growth test; assay type: cell-based; details: Rhizoctonia solani, 72 h, RS, read-out: Percent Fungus Growth Inhibition
Source text: | RS = Rhizoctonia solani

[16] = test system: Pyricularia oryzae; assay: whole plant or invertebrate; assay type: in vivo; details: Pyricularia oryzae, foliar, 24 h, read-out: Percent Disease Control, curative, rice blast, 150 ppm, 24 hours after inoculation
[17] = test system: Fusarium solani; assay: Mycelial growth test; assay type: cell-based; details: Fusarium solani, 72 h
[18] = test system: Phytophthora infestans; assay type: cell-based; details: PI, 48 hours
[19] = test system: Pyricularia oryzae; assay: microbe, parasite or virus in culture; assay type: cell-based; details: Pyricularia oryzae, 72 h
[20] = test system: Alternaria solani; assay: Mycelial growth test; assay type: cell-based; details: Alternaria solani, 72 h, AS, read-out: Percent Fungus Growth Inhibition

## O=c1c(Cl)nsnc1Oc1ccc([N+](=O)[O-])cc1Cl [Compound 53, 3-chloro-5-(2-chloro-4-nitrophenoxy)-4H--1,2,6-thiadiazin-4-one]
[1]; read-out: Percent Fungus Growth Inhibition, HO, 5 ppm, 72 hours
  inhibition at 5 ppm: 27%
[1]; read-out: Percent Fungus Growth Inhibition, HO, 10 ppm, 72 hours
  inhibition at 10 ppm: 100%
[1]; read-out: Percent Fungus Growth Inhibition, HO, 20 ppm, 72 hours
  inhibition at 20 ppm: 100%
[1]; read-out: Percent Fungus Growth Inhibition, HO, 40 ppm, 72 hours
  inhibition at 40 ppm: 100%
[2]; 1.0 ppm
  Spore Germination Rating: 2 (40-60)
[2]; 2.5 ppm
  Spore Germination Rating: 0 (0-10)
[2]; 10 ppm
  Spore Germination Rating: 0 (0-10)
[2]; 40 ppm
  Spore Germination Rating: 0 (0-10)
[3]; 1.0 ppm
  Spore Germination Rating: 2 (40-60)
[3]; 2.5 ppm
  Spore Germination Rating: 1 (10-40)
[3]; 10 ppm
  Spore Germination Rating: 0 (0-10)
[3]; 40 ppm
  Spore Germination Rating: 0 (0-10)
[4]; 1.0 ppm
  Spore Germination Rating: 3 (60-80)
[4]; 2.5 ppm
  Spore Germination Rating: 0 (0-10)
[4]; 10 ppm
  Spore Germination Rating: 0 (0-10)
[4]; 40 ppm
  Spore Germination Rating: 0 (0-10)
[5]; 1.0 ppm
  Spore Germination Rating: 1 (10-40)
[5]; 2.5 ppm
  Spore Germination Rating: 0 (0-10)
[5]; 10 ppm
  Spore Germination Rating: 0 (0-10)
[5]; 40 ppm
  Spore Germination Rating: 0 (0-10)
[6]; 1.0 ppm
  Spore Germination Rating: 2 (40-60)
[6]; 2.5 ppm
  Spore Germination Rating: 0 (0-10)
[6]; 10 ppm
  Spore Germination Rating: 0 (0-10)
[6]; 40 ppm
  Spore Germination Rating: 0 (0-10)
[7]; 5 ppm
  inhibition at 5 ppm: 63%
[7]; 10 ppm
  inhibition at 10 ppm: 89%
[7]; 20 ppm
  inhibition at 20 ppm: 100%
[7]; 40 ppm
  inhibition at 40 ppm: 100%
[8]
  pest or weed control at 150 ppm: 98%
[9]; 72 h, 5 ppm
  inhibition at 5 ppm: 45%
[9]; 72 h, 10 ppm
  inhibition at 10 ppm: 61%
[9]; 72 h, 40 ppm
  inhibition at 40 ppm: 65%
[9]; CC20, 72 h, 20 ppm
  inhibition at 20 ppm: 71%
[10]
  pest or weed control at 150 ppm: 100%
[11]
  pest or weed control at 150 ppm: 0%
[12]; 5 ppm
  inhibition at 5 ppm: 20%
[12]; 10 ppm
  inhibition at 10 ppm: 82%
[12]; 20 ppm
  inhibition at 20 ppm: 100%
[12]; 40 ppm
  inhibition at 40 ppm: 100%
[13]
  pest or weed control at 150 ppm: 0%
[14]; 1.0 ppm
  Spore Germination Rating: 0 (0-10)
[14]; 2.5 ppm
  Spore Germination Rating: 0 (0-10)
[14]; 10 ppm
  Spore Germination Rating: 0 (0-10)
[14]; 40 ppm
  Spore Germination Rating: 0 (0-10)
[15]; 5 ppm
  inhibition at 5 ppm: 53%
[15]; 10 ppm
  inhibition at 10 ppm: 53%
[15]; 20 ppm
  inhibition at 20 ppm: 76%
[15]; 40 ppm
  inhibition at 40 ppm: 76%
[16]
  pest or weed control at 150 ppm: 0%
[17]; PS, 5 ppm, 72 hours, read-out: Percent Fungus Growth Inhibition
  inhibition at 5 ppm: 42%
[17]; PS, 10 ppm, 72 hours, read-out: Percent Fungus Growth Inhibition
  inhibition at 10 ppm: 68%
[17]; PS, 20 ppm, 72 hours, read-out: Percent Fungus Growth Inhibition
  inhibition at 20 ppm: 100%
[17]; read-out: Percent Fungus Growth Inhibition, PS, 40 ppm, 72 hours
  inhibition at 40 ppm: 100%
[18]; 1.0 ppm
  Spore Germination Rating: 1 (10-40)
[18]; 2.5 ppm
  Spore Germination Rating: 0 (0-10)
[18]; 10 ppm
  Spore Germination Rating: 0 (0-10)
[18]; 40 ppm
  Spore Germination Rating: 0 (0-10)
[19]; read-out: Percent Fungus Growth Inhibition, PO, 5 ppm, 72 hours
  inhibition at 5 ppm: 69%
[19]; read-out: Percent Fungus Growth Inhibition, PO, 10 ppm, 72 hours
  inhibition at 10 ppm: 75%
[19]; read-out: Percent Fungus Growth Inhibition, PO, 20 ppm, 72 hours
  inhibition at 20 ppm: 78%
[19]; read-out: Percent Fungus Growth Inhibition, PO, 40 ppm, 72 hours
  inhibition at 40 ppm: 67%
[20]; 5 ppm
  inhibition at 5 ppm: 38%
[20]; 10 ppm
  inhibition at 10 ppm: 42%
[20]; 20 ppm
  inhibition at 20 ppm: 67%
[20]; 40 ppm
  inhibition at 40 ppm: 100%
